{"source": "patent US20250207175A1", "about": "“METHOD FOR DETECTING CONTAMINATING CARBOXYLESTERASE ACTIVITY” (Boehringer Ingelheim International GmbH, priority 2022, published 2025)", "key": {"[1]": {"assay": "Solubility of OPTS in H2O (stock solutions, verified by light scattering)", "format": "physicochemical", "details": "water, aqueous stock solution", "procedure": "Stock solutions of the fluorogenic substrate in water were prepared. Aqueous solutions with an OPTS concentration ≥2.0 mM could be prepared. The solubility could be verified by light scattering experiments."}, "[2]": {"format": "physicochemical", "source_text": "In order to be able to determine the enzymatic activity, a substrate, 1-octanoyloxy-pyrene-3,6,8-trisulfonic acid trisodium salt (OPTS), was chosen. Its hydrolytic product, 1-hydroxypyrene-3,6,8-trisulfonic acid trisodium salt (HPTS), can be detected by fluorescence spectroscopy. The change in the fluorescence signal over time is directly related to the change in the concentration of free fluorophore. The conversion was made possible by setting up a calibration curve with a subsequent linear fit (R^2≥0.99). The experiments of the kinetics measurements with the OPTS/4-MUD substrates assay were performed in duplicates. The reaction mixture without the protein of interest, which served as the respective control, was subtracted from the protein-containing batch. The buffer used for OPTS measurements (hydrophilic substrate) contained 0.3 M HOAc, 0.3 M MES, 0.6 M TRIS and 0.6 M NaCl (4×AMT buffer; acetate, MES, TRIS). For 4-MUD substrate measurements (lipophilic substrate) 0.04 M CHAPS was added in addition. The buffer (AMT) was prepared in four-fold concentration (4×AMT) and was added at 25% (v/v) to the reaction mix. All measurements were carried out in multiwell plates with a preparation volume of 300 μL (75 μL 4×AMT buffer, 30 μL substrate, 75 μL enzyme-containing solution, x μL additive, 300 μL ad. H2O) Unless otherwise stated, all fluorescence spectroscopic measurements were performed using 96-well, clear-bottom, non-binding plates (Greiner, Austria) on a SpectraMax M3 PlateReader (Molecular Device, USA) and recorded using SoftMax Pro 7.0.3 software (Molecular Device, USA). The OPTS assay measurements were typically taken at 25° C., λex=403 nm and λem=512 nm and the 4-MUD assay measurements were taken at 25° C., λex=330 nm and λem=450 nm. For evaluation, the detected fluorescence signal for a reaction mix without protein of interest (control) was subtracted from the reaction mix with protein of interest (e.g. DS). Hydrolysis of the substrate has been measured by detecting the fluorescence intensity of the released chromophore (4-MU or HPTS) immediately following mixing in real-time for a few minutes up to 5 hours depending on fluorescence intensity. The changes in the fluorescence signal over time were subsequently converted to hydrolytic activity using previously established calibration curves with a linear fit (R^2≥0.99).\nThe fluorophore HPTS can be released from the substrate (here esterified caprylic acid) by enzymatic or chemical hydrolysis (acidic and alkaline hydrolysis). In order to assess the influence of pH on aqueous solutions of the substrate, 225 μL of a 33.3 μM OPTS solution was added to 75 μL each of AMT buffer (with pH=5.5 and pH=8) and the kinetics of fluorophore release were recorded for two hours.\nThere is a clear difference in the slope of the fluorescence signals for the different pH values. Based on the recorded calibration curves the autohydrolysis rate at pH 5.5 was calculated as 1.58*10^−7 units (μmol*min-1) and the autohydrolysis rate at pH 8.0 was calculated as 3.48*10^−6 units. Thus, the hydrolysis rate at pH 8 is about 22-times higher compared to pH 5.5, showing that hydrolysis of the fluorogenic substrate can be observed over time, at basic pH, but only at a very low level at pH 5.5. […]"}, "[3]": {"assay": "OPTS assay of histidine-containing buffer controls", "details": "histidine concentrations of less than 200 μM; data not shown", "procedure": "9 different antibody (Ab1-Ab9) samples were tested using the OPTS assay. As a control, measurements were performed with the respective same buffer solution as used in the antibody sample.\nSince histidine has been reported previously to mediate hydrolytic activities in aqueous solutions similar to esterases (Delort, Nguyen-Trung et al. 2006, Mason, McCracken et al. 2010, Amano, Kobayashi et al. 2014, Xu, Chen et al. 2017), samples were dialysed against 0.002% NaCl using a two-step dialysis with a molecular weight cut-off (MWCO) of 20K. For preparative dialysis, the pre-wettened dialysis cassette was filled with 2 ml antibody solution and placed in a beaker filled with 1 L NaCl (0.002% w/v) solution with gentle stirring. After one hour the 1 L NaCl solution was replaced with fresh NaCl (0.002% w/v) solution and dialysed for another two hours with gentle stirring. […] In the following the assay was performed using dialysed drug substance samples. The same solution (final solution outside the dialysis cassette) was used as control sample to be subtracted from the test sample."}, "lipase activity": {"tested_on": "lipase activity", "details": "FIG. 10 of WO 2022 049294 A1; cited from earlier work"}}}
{"compound": "CCCCCCCC(=O)Oc1cc(S(=O)(=O)[O-])c2ccc3c(S(=O)(=O)[O-])cc(S(=O)(=O)[O-])c4ccc1c2c43.[Na+].[Na+].[Na+]", "note": "[OPTS, 1-octanoyloxy-pyrene-3,6,8-trisulfonic acid trisodium salt]", "values": [{"measurement": "solubility", "setting": "[1]", "value": "≥ 2000", "unit": "µM"}, {"measurement": "stability of OPTS in solvent (autohydrolysis)", "setting": "[2]", "value": "more stable in DMSO compared to H2O"}, {"measurement": "autohydrolysis rate at pH 5.5", "setting": "[2]; 25 μM OPTS, AMT buffer pH 5.5, two hours", "value": "1.58*10^−7 units (μmol*min-1)"}, {"measurement": "autohydrolysis rate at pH 8.0", "setting": "[2]; 25 μM OPTS, AMT buffer pH 8.0, two hours", "value": "3.48*10^−6 units"}, {"measurement": "hydrolysis rate at pH 8 compared to pH 5.5", "setting": "[2]; autohydrolysis of OPTS", "value": "about 22 times"}, {"measurement": "autohydrolysis of OPTS compared to 4-MUD", "setting": "[2]; particularly at pH 8.0", "value": "more critical"}]}
{"compound": "N[C@@H](Cc1c[nH]cn1)C(=O)O", "note": "[histidine]", "values": [{"measurement": "activity of histidine buffer component in the OPTS assay", "setting": "[3]", "value": "low 10^−7"}]}
{"compound": "polyethylene glycol tert-octylphenyl ether [Triton X-100]", "values": [{"measurement": "effect of detergent on the 4-MUD assay", "setting": "lipase activity", "value": "inhibited"}]}
